Laboratory results as given in patent US9409952B2, “Peptide-compound cyclization method” (Chugai Seiyaku Kabushiki Kaisha, priority 2011, dated 2016).
Starred links: 1 amine or outer side, 2 acyl side, 3 side chain; linkers in the order of their positions; H or OH if unused. Positions of bridges follow the written chain, without caps; N, C: chain ends. Non-standard residues stand in square brackets, D forms with d. Residues, ends and D or L forms follow the SMILES beside them. *: point of attachment. Phe(4-(CH2)5CO) = O=C([C@H](Cc1ccc(CCCCCC(=O)[*:3])cc1)N[*:1])[*:2]; Phe(3-(CH2)4CO) = O=C([C@H](Cc1cccc(CCCCC(=O)[*:3])c1)N[*:1])[*:2]; Ala(1H-tetrazol-5-yl) = N[C@@H](Cc1nnn[nH]1)C(=O)O; NMeF = CN[C@@H](Cc1ccccc1)C(=O)O; NMeI = CC[C@H](C)[C@H](NC)C(=O)O; NMeL = CN[C@@H](CC(C)C)C(=O)O; NMeV = CN[C@H](C(=O)O)C(C)C; NMeA = CN[C@@H](C)C(=O)O; Piperidide = C1CCN(*)CC1; Sar = CNCC(=O)O

Key:
[1] = PAMPA (parallel artificial membrane permeability assay); format: in vitro ADME; settings: PAMPA; membrane permeation rate (Pe); 50 mM MOPSO buffer pH 6.5 with 5.0% glycocholic acid, 37° C., 18 hours; read-out: iPAMPA Pe
In short: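 Artificial membrane was 10% (w/v) egg lecithin plus 0.5% (w/v) cholesterol in dodecane on a PVDF filter. A 10 mM DMSO stock was added at 0.5% (v/v) to donor buffer (50 mM MOPSO, pH 6.5, 5.0% glycocholic acid). After 18 h at 37 °C, LC/MS or LC/UV gave donor and acceptor levels for Pe.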

[2] = Metabolic stability in human hepatic microsome; format: in vitro ADME; settings: microsomes, pH 7.4; human hepatic microsome, NADPH(+); read-out: CL NADPH(+)

SMILES	Papp at 18 hours, 50 µM [1] [×10⁻⁶ cm/s]	microsomal CLint at 1 uM [2] [µL/min/mg]
CC[C@H](C)[C@H]1C(=O)N(C)[C@@H](C)C(=O)N[C@H](C(=O)N2CCCCC2)Cc2ccc(cc2)CCCCCC(=O)N[C@@H]([C@@H](C)O)C(=O)N(C)[C@@H](Cc2ccccc2)C(=O)N(C)[C@@H](CC(C)C)C(=O)N[C@@H](C(C)C)C(=O)N2CCC[C@H]2C(=O)N(C)[C@@H](Cc2ccccc2)C(=O)N[C@@H](CC(C)C)C(=O)N(C)CC(=O)N1C [DP-883] (T[NMeF][NMeL]VP[NMeF]L[Sar][NMeI][NMeA][Phe(4-(CH2)5CO)]-Piperidide; lactam N-11)	14	294
CC[C@H](C)[C@H]1C(=O)N[C@@H](Cc2ccccc2)C(=O)N(C)[C@@H](Cc2ccccc2)C(=O)N[C@@H]([C@@H](C)O)C(=O)N2CCC[C@H]2C(=O)N[C@@H](CC(C)C)C(=O)N[C@H](C(=O)N2CCCCC2)Cc2cccc(c2)CCCCC(=O)NCC(=O)N(C)[C@@H](C(C)C)C(=O)N(C)[C@@H](CC(C)C)C(=O)N[C@@H](C)C(=O)N1C [DP-885] (G[NMeV][NMeL]A[NMeI]F[NMeF]TPL[Phe(3-(CH2)4CO)]-Piperidide; lactam N-11)	30	75
CC[C@H](C)[C@@H]1NC(=O)CCCCc2cccc(c2)C[C@@H](C(=O)N2CCCCC2)NC(=O)[C@H](Cc2ccccc2)N(C)C(=O)[C@H](CC(C)C)N(C)C(=O)CN(C)C(=O)[C@H]([C@@H](C)O)NC(=O)[C@H](C)N(C)C(=O)[C@H](C(C)C)N(C)C(=O)[C@H](C)NC(=O)[C@H](CC(C)C)N(C)C(=O)[C@H](Cc2ccccc2)N(C)C1=O [DP-886] (I[NMeF][NMeL]A[NMeV][NMeA]T[Sar][NMeL][NMeF][Phe(3-(CH2)4CO)]-Piperidide; lactam N-11)	22	162
C=C1CCC(=O)NCC(=O)N(C)[C@@H](C)C(=O)N[C@@H](CC(C)C)C(=O)N[C@@H](C(C)C)C(=O)N(C)[C@@H](CC(C)C)C(=O)N[C@@H](Cc2ccccc2)C(=O)N(C)[C@@H](Cc2ccccc2)C(=O)N[C@@H]([C@@H](C)CC)C(=O)N(C)[C@@H](C)C(=O)N[C@@H](CC(C)C)C(=O)N[C@@H]([C@@H](C)O)C(=O)N[C@H](C(=O)N2CCCCC2)Cc2ccc1cc2 [DP-887]	3.9	103
C=C1CCC(=O)N[C@@H](CC(C)C)C(=O)N[C@@H](C(C)C)C(=O)N(C)[C@@H](CC(C)C)C(=O)N[C@@H](Cc2ccccc2)C(=O)N(C)[C@@H](Cc2ccccc2)C(=O)N[C@@H]([C@@H](C)CC)C(=O)N(C)[C@@H](C)C(=O)N[C@@H](CC(C)C)C(=O)N[C@@H]([C@@H](C)O)C(=O)N[C@H](C(=O)N2CCCCC2)Cc2ccc1cc2 [DP-888]	0.81	69
C=C1CCC(=O)NCC(=O)N(C)[C@@H](C)C(=O)N[C@@H](CC(C)C)C(=O)N[C@@H](C(C)C)C(=O)N(C)[C@@H](CC(C)C)C(=O)N[C@@H](Cc2ccccc2)C(=O)N(C)[C@@H](Cc2ccccc2)C(=O)N[C@@H]([C@@H](C)CC)C(=O)N(C)[C@@H](C)C(=O)N[C@@H](CC(C)C)C(=O)N[C@@H]([C@@H](C)O)C(=O)N[C@H](C(=O)N2CCCCC2)Cc2cccc1c2 [DP-889]	3.6	89
CC[C@H](C)[C@@H]1NC(=O)[C@H](Cc2ccccc2)N(C)C(=O)[C@H](Cc2ccccc2)NC(=O)[C@H](CC(C)C)N(C)C(=O)[C@H](C(C)C)NC(=O)[C@H](CC(C)C)NC(=O)[C@H](C)N(C)C(=O)CNC(=O)CCCCc2cccc(c2)C[C@@H](C(=O)N2CCCCC2)NC(=O)[C@H]([C@@H](C)O)NC(=O)[C@H](CC(C)C)NC(=O)[C@H](C)N(C)C1=O [DP-893] (G[NMeA]LV[NMeL]F[NMeF]I[NMeA]LT[Phe(3-(CH2)4CO)]-Piperidide; lactam N-12)	5.3	86
CC[C@H](C)[C@@H]1NC(=O)[C@H](Cc2ccccc2)N(C)C(=O)[C@H](Cc2ccccc2)NC(=O)[C@H](CC(C)C)N(C)C(=O)[C@H](C(C)C)NC(=O)[C@H](CC(C)C)NC(=O)CCCCc2cccc(c2)C[C@@H](C(=O)N2CCCCC2)NC(=O)[C@H]([C@@H](C)O)NC(=O)[C@H](CC(C)C)NC(=O)[C@H](C)N(C)C1=O [DP-894] (LV[NMeL]F[NMeF]I[NMeA]LT[Phe(3-(CH2)4CO)]-Piperidide; lactam N-10)	0.46	71
CC[C@H](C)[C@H]1C(=O)N[C@@H](Cc2ccccc2)C(=O)N(C)[C@@H](Cc2ccccc2)C(=O)N[C@@H]([C@@H](C)O)C(=O)N2CCC[C@H]2C(=O)N[C@@H](CC(C)C)C(=O)N[C@H](C(=O)N2CCCCC2)Cc2cccc(c2)CCCCC(=O)N[C@@H](C(C)C)C(=O)N(C)CC(=O)N[C@@H](CC(C)C)C(=O)N(C)[C@@H](CC(C)C)C(=O)N[C@@H](C)C(=O)N1C [DP-896] (V[Sar]L[NMeL]A[NMeI]F[NMeF]TPL[Phe(3-(CH2)4CO)]-Piperidide; lactam N-12)	13	57
CC[C@H](C)[C@H]1C(=O)N[C@@H](Cc2ccccc2)C(=O)N(C)[C@@H](Cc2ccccc2)C(=O)N[C@@H]([C@@H](C)O)C(=O)N2CCC[C@H]2C(=O)N[C@@H](CC(C)C)C(=O)N[C@H](C(=O)N2CCCCC2)Cc2cccc(c2)CCCCC(=O)N[C@@H](CC(C)C)C(=O)N(C)[C@@H](CC(C)C)C(=O)N[C@@H](C)C(=O)N1C [DP-897] (L[NMeL]A[NMeI]F[NMeF]TPL[Phe(3-(CH2)4CO)]-Piperidide; lactam N-10)	2.4	56
CC[C@H](C)[C@@H]1NC(=O)[C@H](Cc2ccccc2)NC(=O)[C@@H]2CCCN2C(=O)[C@H](CC(C)C)N(C)C(=O)[C@H](Cc2ccccc2)NC(=O)[C@H](CC(C)C)NC(=O)[C@H]([C@@H](C)O)NC(=O)[C@H](C)N(C)C(=O)[C@H](C(C)C)NC(=O)CCCCc2cccc(c2)C[C@@H](C(=O)N2CCCCC2)NC(=O)[C@H](CC(C)C)NC(=O)CN(C)C1=O [DP-900] (V[NMeA]TLF[NMeL]PFI[Sar]L[Phe(3-(CH2)4CO)]-Piperidide; lactam N-12)	1.3	244
CC[C@H](C)[C@@H]1NC(=O)[C@H](Cc2ccccc2)NC(=O)[C@@H]2CCCN2C(=O)[C@H](CC(C)C)N(C)C(=O)[C@H](Cc2ccccc2)NC(=O)[C@H](CC(C)C)NC(=O)[C@H]([C@@H](C)O)NC(=O)CCCCc2cccc(c2)C[C@@H](C(=O)N2CCCCC2)NC(=O)[C@H](CC(C)C)NC(=O)CN(C)C1=O [DP-901] (TLF[NMeL]PFI[Sar]L[Phe(3-(CH2)4CO)]-Piperidide; lactam N-10)	23	131
CC[C@H](C)[C@@H]1NC(=O)[C@H](Cc2ccccc2)NC(=O)CCCCc2cccc(c2)C[C@@H](C(=O)N2CCCCC2)NC(=O)[C@H](CC(C)C)NC(=O)[C@H](CC(C)C)NC(=O)[C@H](C(C)C)NC(=O)[C@H](C)N(C)C(=O)[C@H](Cc2ccccc2)NC(=O)CNC(=O)[C@H]([C@@H](C)O)NC(=O)[C@H](CC(C)C)NC(=O)[C@@H]2CCCN2C1=O [DP-903] (FIPLTGF[NMeA]VLL[Phe(3-(CH2)4CO)]-Piperidide; lactam N-12)	0.34	26
CC(C)C[C@H]1NC(=O)C[C@@H](C(=O)N2CCCCC2)NC(=O)[C@H](CC(C)C)N(C)C(=O)[C@H](Cc2ccccc2)NC(=O)[C@H](CC(C)C)N(C)C(=O)[C@H](C)N(C)C(=O)[C@H](Cc2c[nH]cn2)NC(=O)[C@H](CC(C)C)N(C)C(=O)[C@H](Cc2ccccc2)N(C)C1=O [DP-904] ([dL][NMeF][NMeL]H[NMeA][NMeL]F[NMeL]D-Piperidide; lactam N-9)	7.8	89
CC(C)C[C@@H]1NC(=O)[C@H](CC(C)C)N(C)C(=O)[C@H]([C@@H](C)O)NC(=O)[C@H](Cc2ccccc2)N(C)C(=O)C[C@@H](C(=O)N2CCCCC2)NC(=O)[C@H](CC(C)C)N(C)C(=O)[C@H](Cc2c[nH]cn2)NC(=O)[C@H](Cc2ccccc2)N(C)C(=O)[C@H](Cc2ccccc2)N(C)C1=O [DP-905] ([NMeF]T[NMeL]L[NMeF][NMeF]H[NMeL]D-Piperidide; lactam N-9)	0.6	73
CC(C)C[C@@H]1NC(=O)[C@H](CC(C)C)N(C)C(=O)C[C@@H](C(=O)N2CCCCC2)NC(=O)[C@H](CC(C)C)N(C)C(=O)[C@H](C)N(C)C(=O)[C@H]([C@@H](C)O)NC(=O)[C@H](CC(C)C)N(C)C(=O)[C@H](Cc2ccccc2)N(C)C(=O)[C@H](Cc2c[nH]cn2)NC(=O)[C@H](Cc2ccccc2)N(C)C(=O)[C@H](CC(C)C)N(C)C1=O [DP-906] ([NMeL]L[NMeL][NMeF]H[NMeF][NMeL]T[NMeA][NMeL]D-Piperidide; lactam N-11)	0.65	49
CC(C)C[C@@H]1NC(=O)[C@H](CC(C)C)N(C)C(=O)C[C@@H](C(=O)N2CCCCC2)NC(=O)[C@H](CC(C)C)N(C)C(=O)[C@H](CC(C)C)N(C)C(=O)[C@H](Cc2nn[nH]n2)NC(=O)[C@H](CC(C)C)N(C)C(=O)[C@H](Cc2ccccc2)N(C)C(=O)[C@H](CC(C)C)NC(=O)[C@H](Cc2ccccc2)N(C)C(=O)[C@H](CC(C)C)N(C)C1=O [DP-908] ([NMeL]L[NMeL][NMeF]L[NMeF][NMeL][Ala(1H-tetrazol-5-yl)][NMeL][NMeL]D-Piperidide; lactam N-11)	1.6	3
CC(C)C[C@H]1NC(=O)[C@H](Cc2ccccc2)N(C)C(=O)[C@H](CC(C)C)N(C)C(=O)[C@H](C)NC(=O)[C@H](CC(C)C)N(C)C(=O)[C@H](Cc2ccccc2)N(C)C(=O)[C@H](Cc2nn[nH]n2)NC(=O)C[C@@H](C(=O)N2CCCCC2)NC(=O)[C@H](CC(C)C)N(C)C(=O)[C@H](CC(C)C)N(C)C1=O [DP-909] ([Ala(1H-tetrazol-5-yl)][NMeF][NMeL]A[NMeL][NMeF][dL][NMeL][NMeL]D-Piperidide; lactam N-10)	12	15
